Test results from patent US20250262223A1, “METHODS FOR THE TREATMENT OF BIOLOGICAL AGING” (BIOVIE INC., priority 2022, published 2025).

How the values were obtained:
[1] = system: p-IKK beta, p-ERK, p-P38 and p-JNK (Tau phosphorylation); experiment: in vitro samples: activation of inflammatory kinases and p-Tau; format: cell-based
Excerpt: Without wishing to be bound by theory, it is believed that 17α-ethynylandrost-5-ene-3β,7β,17β-triol binds to ERK 1 and ERK 2, which decreases inflammatory activation of p-IKK beta, p-JNK, p-ERK and p-P38, thereby decreasing serine IRS1 phosphorylation, restoring tyrosine IRS1 phosphorylation and insulin sensitivity.

[2] = system: CpGs (DNA methylation); experiment: Illumina 850K array DNA methylation changes following 14 weeks of bezisterim treatment; format: in vivo, human; settings: for decrease in DNAm: 14 weeks
Experimental: In this study, 23 mild cognitive impaired (“MCI”) and Alzheimer's disease (“AD”) subjects were enrolled based on Clinical Dementia Rating (“CDR”) from their Quick Dementia Rating System (“QDRS”) scale. Advanced MRI imaging (ASL, BOLD, MRS, task-based fMRI) was also performed as well as cognition and memory tests were performed (Cog12, MM SE, QDRS, MoCA). Biomarkers of the subjects were also taken (csf p-Tau, A beta, and plasma TNF) and episome analyses were performed. Finally, a biological clock analysis was performed (DNA methylation profiling).
Illumina® 850K array DNA methylation changes following 14 weeks of bezisterim treatment were sorted and the top 400 decreased CpGs (decreases >50%) were explored for correlations with changes in clinical results following treatment. Of these, 366 have CpG gene identifications.

[3] = Phase 3 trial, metabolic changes and correlations; format: in vivo, human
Experimental: Subjects metabolic and correlation changes were analyzed. Many of the genes associated with LOAD (late onset Alzheimer's disease) are related to cholesterol metabolism, which is decreased in AD neuron membranes. Insulin and glycemic controls are known to be involved in neurodegeneration. […] Increased mean amplitude of glycemic excursion (MAGE from CGM) increased risk of Alzheimer's disease progression. Leptin is an anti-inflammatory, neuroprotective and is decreased in AD. […] The results are described in Tables 4 and 5.
FIGS. 17A-17C illustrates graphs representing increased fasting insulin and HOMA2-% B with decreased HOMA2-% S w/o hypoglycemia. Table 10 provides additional information regarding the fasting insulin and HOMA2-% B with decreased HOMA2-% S w/o hypoglycemia.

[4] = Phase 3 imaging sub-study vMRI; format: in vivo, human; settings: 23 subjects; blinded Phase 3 data, NE3107 and placebo pooled
Experimental: Subjects were analyzed using imaging sub-studies vMRI on 23 subjects. It was observed that the volume was increased in the hippocampus and amygdala. In addition, it was observed a decreased CGIC was correlated with decreased hippocampi volume and increased MCP-1 was correlated with increased whole cortex. The results are described in FIGS. 14A-14B and Table 6.

[5] = Phase 3 imaging sub-study FDG-PET; format: in vivo, human; settings: subjects with a baseline whole cortex suvr <1.29; blinded Phase 3 data, NE3107 and placebo pooled
Experimental: Subjects were analyzed using a fluorodeoxyglucose (FDG)-positron emission tomography (PET) imaging scans. FDG-PET standardized uptake value ratios (“suvr”) were increased in 14/24 subjects with a baseline whole cortex suvr <1.29. […] Cholesterol increases trended with increased Cingulate suvr. The results are described in Table 7 and FIG. 15.

[6] = Phase 3 neuropsychiatric inventory; format: in vivo, human; settings: blinded Phase 3 data, NE3107 and placebo pooled
Experimental: Subjects were analyzed for neuropsychiatric inventory. […] An improvement in appetite was also correlated with decreased Cog12, CDR SB and ADCOMS, with increased Alzheimer's disease. A decrease in anxiety was correlated with an increase ADL and decreased CGIC. Sleep improvement was correlated with a decrease in CGIC and decreased in TNFα. The results are described in Table 8 and FIGS. 16A-16B.

[7] = Phase 3 adverse effects; format: in vivo
[8] = system: extracellular signal-regulated kinase; settings: cited from earlier work
[9] = system: ERK- and NF-κB-stimulated inflammatory mediators, including TNF-α; settings: without inhibiting their homeostatic functions; cited from earlier work
[10] = cited from earlier work
[11] = P < 0.0001, blinded Phase 3 data, NE3107 and placebo pooled
[12] = blinded Phase 3 data, NE3107 and placebo pooled

For `C#C[C@]1(O)CC[C@H]2[C@@H]3[C@@H](O)C=C4C[C@@H](O)CC[C@]4(C)[C@H]3CC[C@@]21C` [NE3107, 17α-ethynylandrost-5-ene-3β,7β,17β-triol], the “Akt inhibition of GSK 3beta” value [1] was “increased Akt inhibition of GSK 3beta”, the “activation of inflammatory p-IKK beta, p-ERK, p-P38 and p-JNK” value ([1]; in vitro samples) was “decreased activation” and the p-Tau ([1]; in vitro samples) was “decreased p-Tau”. The “DNA methylation decrease of the top 400 decreased CpGs” value ([2]; 14 weeks of treatment) was greater than 50%, the “decrease in DNAm” value ([2]; HLA-L) was 56% and the “decrease in DNAm” value ([2]; KCNQ1DN) was 51%. For the same compound, the “decrease in DNAm” value ([2]; SLC26A1) was 55%, the Hypoglycemia ([3]; Increased Fasting Insulin: No, blinded Phase 3 data) was 2 and the Hypoglycemia ([3]; Increased Fasting Insulin: Yes, blinded Phase 3 data) was 0. The “HOMA2-% B, Change from Baseline” value [3, 11] was “+13.5%, *”, the “HOMA2-% S, Change from Baseline” value [3, 11] was −21.2%, * and the “Insulin, Change from Baseline” value [3, 11] was “+1.9 μlU/mL,*”. The “Cholesterol, Change from Baseline” value [3, 12] was “+3.0 mg/dL”, the “Leptin, V10 median” value [3, 12] was 29.2 ng/mL and the “Leptin DNAm” value ([3]; in vivo) was “increase”. For the same compound, the “MAGE, Change from Baseline” value ([3]; mean amplitude of glycemic excursion from CGM, blinded Phase 3 data, NE3107 and placebo pooled) was -0.57 mg/dL, the Hypoglycemia ([3]; with increased insulin and HOMA2-% B and decreased HOMA2% insulin sensitivity, blinded Phase 3 data) was “no cases of hypoglycemia” and the vMRI amygdala volume [4] was “increased”. The vMRI hippocampus volume [4] was “increased”, the “subjects with increased FDG-PET standardized uptake value ratios (suvr)” value [5] was 14/24 and the “neuropsychiatric inventory, overall improvement in sleep” value ([6]; p<0.0001) was −1.0. For the same compound, the “neuropsychiatric inventory, overall improvement in appetite” value ([6]; p<0.023) was −1.0, the “subjects discontinued due to a reported AE” value ([7]; 10 subjects of 439 enrolled, blinded, NE3107 and placebo pooled) was 2.3% and the “serious AEs” value ([7]; 12, blinded, NE3107 and placebo pooled) was 2.7%. The “related AEs” value ([7]; 43, blinded, NE3107 and placebo pooled) was 9.8%, the “subjects who experienced 1 or more AEs” value ([7]; 156 of 439 subjects, blinded, NE3107 and placebo pooled) was 35.5% and the “serious AEs that resulted in death” value ([7]; count, not known whether on IP or placebo) was 1. For the same compound, the “binding to extracellular signal-regulated kinase” value [8] was “binds”, the “inhibition of inflammation-driven ERK- and NF-κB-stimulated inflammatory mediators, including TNF-α” value [9] was “selectively inhibit” and the blood-brain permeability [10] was “blood-brain permeable”.
